From patent publication US12187709B2 (Genentech, Inc., priority 2021, dated 2025)

How the values were obtained:
[1] = biological target: Human Cbl-b (residues 40-426) (Homo sapiens (Human), UniProt Q13191); assay: Cbl-b SPR assay; format: binding; details: for Fold of selectivity: C-cbl SPR Kd vs Cbl-b SPR Kd; for Kd: SPR, 20° C.
Outline: (§1)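 First, protein is captured to 1300-1500 RU. Then compound runs in single cycle kinetics, a blank plus 5 two-fold concentrations up to 500 nM (120 s contact, 50 μl/min, 450 s dissociation). Chaser injections (20 s, 30 μl/min) track occupancy, giving kd, which is fixed when fitting the titration.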

c-Cbl = c-Cbl (Homo sapiens (Human), UniProt P22681); assay: C-Cbl LCK Ub TR-FRET assay (C-cbl Lck HTRF); format: biochemical
Chain of c-Cbl (P22681 47-435): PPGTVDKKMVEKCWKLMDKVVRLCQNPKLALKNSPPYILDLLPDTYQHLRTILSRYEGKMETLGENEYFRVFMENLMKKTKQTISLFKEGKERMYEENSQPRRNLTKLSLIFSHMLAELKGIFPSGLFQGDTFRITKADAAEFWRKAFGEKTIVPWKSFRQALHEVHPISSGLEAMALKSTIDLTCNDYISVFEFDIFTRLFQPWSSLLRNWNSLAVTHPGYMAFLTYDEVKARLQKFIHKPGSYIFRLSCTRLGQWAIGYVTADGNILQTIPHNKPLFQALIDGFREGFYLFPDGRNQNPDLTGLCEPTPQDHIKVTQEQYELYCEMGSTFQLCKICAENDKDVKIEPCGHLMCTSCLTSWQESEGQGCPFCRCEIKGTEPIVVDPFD
Outline: (§2)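 Detection reagents added, brief spin, 20 min RT. IC50 fit normalized to no-LCK (low) and DMSO (high) controls.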

c-Cbl (residues 47-435) = c-Cbl (residues 47-435) (Homo sapiens (Human), UniProt P22681); assay: c-Cbl SPR assay; format: binding; details: 20° C.
Chain of c-Cbl (residues 47-435) (P22681 47-435): as above
Outline: as §1

Cbl-b = Cbl-b (Homo sapiens (Human), UniProt Q13191); assay: Cbl-b LCK Ub TR-FRET assay (Cbl-b Lck HTRF); format: biochemical; details: for IC50: Cbl-b LCK Ub TR-FRET; for fold-selectivity (Cbl-b over C-cbl): ratio C-cbl Lck HTRF IC50 / Cbl-b Lck HTRF IC50
Chain of Cbl-b (Q13191 40-426): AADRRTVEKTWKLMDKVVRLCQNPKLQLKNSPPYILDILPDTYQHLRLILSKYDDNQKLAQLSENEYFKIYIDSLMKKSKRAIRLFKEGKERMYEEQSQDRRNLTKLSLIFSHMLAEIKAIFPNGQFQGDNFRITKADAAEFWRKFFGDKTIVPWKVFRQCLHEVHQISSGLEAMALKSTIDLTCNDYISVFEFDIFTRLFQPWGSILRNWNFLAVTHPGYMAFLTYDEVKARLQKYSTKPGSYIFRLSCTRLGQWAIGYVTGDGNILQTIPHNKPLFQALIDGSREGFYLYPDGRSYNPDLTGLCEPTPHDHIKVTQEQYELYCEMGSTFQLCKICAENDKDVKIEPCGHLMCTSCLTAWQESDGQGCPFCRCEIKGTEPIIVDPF
Outline: as §2

Chain of Human Cbl-b (residues 40-426) (Q13191 40-426): as above

SMILES	Fold of selectivity [1] [×]	Kd [1] [nM]	IC50 (c-Cbl) [nM]	Kd (c-Cbl (residues 47-435)) [nM]	IC50 (Cbl-b) [nM]	fold-selectivity (Cbl-b over C-cbl) (Cbl-b) [x]
Cn1cnnc1[C@]1(c2cccc(N3Cc4c(cc(CNC5(C)CCC5)cc4C(F)(F)F)C3=O)c2)C[C@@](O)(C(F)(F)F)C1 [Compound 120, 2-(3-((1s,3s)-3-hydroxy-1-(4-methyl-4H-1,2,4-triazol-3-yl)-3-(trifluoromethyl)cyclobutyl)phenyl)-6-(((1-methylcyclobutyl)amino)methyl)-4-(trifluoromethyl)isoindolin-1-one]	6.8	180	1800	1400	360	4.8
C[C@H]1C[C@@](c2cccc(N3Cc4c(cc(CNC5(C)CCC5)cc4C(F)(F)F)C3=O)c2)(c2nncn2C)O1 [Compound 123, 2-(3-((2R,4S)-4-methyl-2-(4-methyl-4H-1,2,4-triazol-3-yl)oxetan-2-yl)phenyl)-6-(((1-methylcyclobutyl)amino)methyl)-4-(trifluoromethyl)isoindolin-1-one]	6.1	21	230	130	68	3.4
C[C@@H]1C[C@@](c2cccc(N3Cc4c(cc(CNC5(C)CCC5)cc4C(F)(F)F)C3=O)c2)(c2nncn2C)O1 [Compound 124, 2-(3-((2R,4R)-4-methyl-2-(4-methyl-4H-1,2,4-triazol-3-yl)oxetan-2-yl)phenyl)-6-(((1-methylcyclobutyl)amino)methyl)-4-(trifluoromethyl)isoindolin-1-one]	3.9	17	100	67	56	1.9
C[C@H]1C[C@](c2cccc(N3Cc4c(cc(CNC5(C)CCC5)cc4C(F)(F)F)C3=O)c2)(c2nncn2C)O1 [Compound 125, 2-(3-((2S,4S)-4-methyl-2-(4-methyl-4H-1,2,4-triazol-3-yl)oxetan-2-yl)phenyl)-6-(((1-methylcyclobutyl)amino)methyl)-4-(trifluoromethyl)isoindolin-1-one]	11	130	2300	1500	410	5.7
C[C@@H]1C[C@](c2cccc(N3Cc4c(cc(CNC5(C)CCC5)cc4C(F)(F)F)C3=O)c2)(c2nncn2C)O1 [Compound 126, 2-(3-((2S,4R)-4-methyl-2-(4-methyl-4H-1,2,4-triazol-3-yl)oxetan-2-yl)phenyl)-6-(((1-methylcyclobutyl)amino)methyl)-4-(trifluoromethyl)isoindolin-1-one]	6.0	12	250	130	75	3.4
Cn1cnnc1[C@H](c1cccc(N2Cc3c(cc(CNC4(C)CCC4)cc3C(F)(F)F)C2=O)c1)[C@H]1CCOC1 [Compound 169, 2-(3-((S)-(4-methyl-4H-1,2,4-triazol-3-yl)((R)-tetrahydrofuran-3-yl)methyl)phenyl)-6-(((1-methylcyclobutyl)amino)methyl)-4-(trifluoromethyl)isoindolin-1-one]	2.7	66	340	180	72	4.8
Cn1cnnc1[C@]1(c2cc(NC3CCCC3)cc(N3Cc4c(cc(CNC5(C)CCC5)cc4C(F)(F)F)C3=O)c2)C[C@H](C)C1 [Compound 177, 2-(3-(cyclopentylamino)-5-((1s,3s)-3-methyl-1-(4-methyl-4H-1,2,4-triazol-3-yl)cyclobutyl)phenyl)-6-(((1-methylcyclobutyl)amino)methyl)-4-(trifluoromethyl)isoindolin-1-one]	10	9.9	180	99	59	2.8
CCO[C@H]1C[C@@](c2cccc(N3Cc4c(cc(CNC5(C)CCC5)cc4C(F)(F)F)C3=O)c2)(c2nncn2C)C1 [Compound 178, 2-(3-((1s,3s)-3-ethoxy-1-(4-methyl-4H-1,2,4-triazol-3-yl)cyclobutyl)phenyl)-6-(((1-methylcyclobutyl)amino)methyl)-4-(trifluoromethyl)isoindolin-1-one]	4.6	5.8	85	30	33	2.5
Cn1cnnc1[C@]1(c2cc(OC3CCCC3)cc(N3Cc4c(cc(CNC5(C)CCC5)cc4C(F)(F)F)C3=O)c2)C[C@H](C)C1 [Compound 186, 2-(3-(cyclopentyloxy)-5-((1s,3s)-3-methyl-1-(4-methyl-4H-1,2,4-triazol-3-yl)cyclobutyl)phenyl)-6-(((1-methylcyclobutyl)amino)methyl)-4-(trifluoromethyl)isoindolin-1-one]	5.2	13	100	72	35	2.9

These reach a lower Kd [1]. Values come first.

Fold of selectivity [1] [×]	Kd [1] [nM]	IC50 (c-Cbl) [nM]	Kd (c-Cbl (residues 47-435)) [nM]	IC50 (Cbl-b) [nM]	fold-selectivity (Cbl-b over C-cbl) (Cbl-b) [x]	SMILES
16	3.2	60	53	12	5.0	CO[C@H]1C[C@](c2cccc(N3Cc4c(cc(CNC5(C)CCC5)cc4C(F)F)C3=O)c2)(c2nncn2C)C1 [Compound 117, 4-(difluoromethyl)-2-(3-((1r,3r)-3-methoxy-1-(4-methyl-4H-1,2,4-triazol-3-yl)cyclobutyl)phenyl)-6-(((1-methylcyclobutyl)amino)methyl)isoindolin-1-one]
8.4	0.27	8.5	2.1	6.1	1.4	Cl.Cn1cnnc1[C@]1(c2cccc(N3Cc4c(cc(CNC5(C)CCC5)cc4C(F)(F)F)C3=O)c2)C[C@@H](Cl)C1 [Compound 137, 2-(3-((1r,3r)-3-chloro-1-(4-methyl-4H-1,2,4-triazol-3-yl)cyclobutyl)phenyl)-6-(((1-methylcyclobutyl)amino)methyl)-4-(trifluoromethyl)isoindolin-1-one hydrochloride]
5.6	0.75	4.2	4.2	4.1	1.0	Cn1cnnc1[C@]1(c2cccc(N3Cc4c(cc(CNC5(C)CCC5)cc4C(F)(F)F)C3=O)c2)C[C@H](Cl)C1 [Compound 138, 2-(3-((1s,3s)-3-chloro-1-(4-methyl-4H-1,2,4-triazol-3-yl)cyclobutyl)phenyl)-6-(((1-methylcyclobutyl)amino)methyl)-4-(trifluoromethyl)isoindolin-1-one]
13	4.6	110	58	30	3.4	CCO[C@H]1C[C@](c2cccc(N3Cc4c(cc(CNC5(C)CCC5)cc4C(F)(F)F)C3=O)c2)(c2nncn2C)C1 [Compound 179, 2-(3-((1r,3r)-3-ethoxy-1-(4-methyl-4H-1,2,4-triazol-3-yl)cyclobutyl)phenyl)-6-(((1-methylcyclobutyl)amino)methyl)-4-(trifluoromethyl)isoindolin-1-one]
10.2	3.5	74	36	18	3.7	CO[C@H]1C[C@](c2cccc(N3Cc4c(cc(CN5CCN(C)C[C@@H]5C(C)C)cc4C(F)(F)F)C3=O)c2)(c2nncn2C)C1 [Compound 180, 6-(((S)-2-isopropyl-4-methylpiperazin-1-yl)methyl)-2-(3-((1r,3S)-3-methoxy-1-(4-methyl-4H-1,2,4-triazol-3-yl)cyclobutyl)phenyl)-4-(trifluoromethyl)isoindolin-1-one]
2.0	0.37	8.3	0.74	9.8	0.85	CCOc1cc(N2Cc3c(cc(CNC4(C)CCC4)cc3C(F)(F)F)C2=O)cc([C@]2(c3nncn3C)C[C@@H](C)C2)c1 [Compound 181, 2-(3-ethoxy-5-((1s,3s)-3-methyl-1-(4-methyl-4H-1,2,4-triazol-3-yl)cyclobutyl)phenyl)-6-(((1-methylcyclobutyl)amino)methyl)-4-(trifluoromethyl)isoindolin-1-one]
2.7	0.35	11	0.85	11	1.0	CCOc1cc(C2(c3nncn3C)CC(F)(F)C2)cc(N2Cc3c(cc(CNC4(C)CCC4)cc3C(F)(F)F)C2=O)n1 [Compound 182, 2-(4-(3,3-difluoro-1-(4-methyl-4H-1,2,4-triazol-3-yl)cyclobutyl)-6-ethoxypyridin-2-yl)-6-(((1-methylcyclobutyl)amino)methyl)-4-(trifluoromethyl)isoindolin-1-one]
5.8	3.2	58	18	18	3.4	Cn1cnnc1[C@]1(c2cc(NC3CCCC3)cc(N3Cc4c(cc(CNC5(C)CCC5)cc4C(F)(F)F)C3=O)c2)C[C@@H](C)C1 [Compound 183, 2-(3-(cyclopentylamino)-5-((1r,3r)-3-methyl-1-(4-methyl-4H-1,2,4-triazol-3-yl)cyclobutyl)phenyl)-6-(((1-methylcyclobutyl)amino)methyl)-4-(trifluoromethyl)isoindolin-1-one]
